# Measurements reported in article PMC10287555, “Camonsertib in DNA damage response-deficient advanced solid tumors: phase 1 trial results” (Nature Medicine, 2023).
# Like-named read-outs stand apart in the source and are kept apart here.
# How the values were obtained:
# Format in all cases: in vivo, human
# [1] = Plasma pharmacokinetics, cycle 1 day 1 (LC–MS/MS, non-compartmental analysis); settings: for AUC(0-t) / Cmax / Tmax / AUC(0-inf) / half-life: human, plasma, oral; for Cmax: read-out: Cmax, geometric mean; for Tmax: read-out: Tmax, median; for AUC(0-inf): read-out: AUC0-INF, geometric mean
# Description: (§1) The plasma levels from cycle 1, day 1 of camonsertib were quantified using a validated liquid chromatography tandem–mass spectrometry (LC–MS/MS) method. […] All PK parameters were calculated using actual sampling times. Mean plasma concentration time profiles at given dose levels and regimens were plotted on semi-logarithmic plots using nominal times.
# p-KAP1 Ser821 = test: PD biomarker IHC in paired pre-/on-treatment tumor biopsies; settings: 33 paired biopsies, doses >100 mg; P < 0.001, paired Wilcoxon test
# Description: (§2) Tumor biopsies were collected from patients at baseline and on cycle 2, day 10 between 8 h and 24 h after dosing. […] Thus, p-CHK1 was not assessed owing to limited feasibility. Unstained slides sectioned at 4 μm were labeled for gH2AX Ser139 (clone 20E3, 9718, Cell Signaling Technology, 1:1,000 dilution) and pKAP1 S824 (clone BL-246-7B5, ab243870, Abcam, 1:600 dilution) on a BOND RX autostainer (Leica Biosystems) with enzyme treatment (1:1,000) and BOND Polymer Refine Detection (Leica Biosystems) according to the manufacturer’s protocol. After staining, sections were dehydrated and film-coverslipped using a TissueTek Prisma and Coverslipper (Sakura Fintech). Retrospective ATM IHC was performed by a sponsor-approved central laboratory (anti-ATM clone Y170, ab32420, Abcam, 1:250 dilution). All slides were interpreted by a board-certified pathologist. ATM loss was defined as ≤5% of positive tumor cells.
# γ-H2AX = test: as above; settings: 33 paired biopsies, doses >100 mg; P = 0.003, paired Wilcoxon test
# Description: as §2
# [2] = Food effect on PK (module 1c)
# Text: TRESR (NCT04497116) is a modular, phase 1/2a, first-in-human, multicenter, open-label, non-randomized, dose-escalation, dose-expansion study of camonsertib, administered orally as a single agent or in combination with talazoparib or gemcitabine in patients with advanced solid tumors. The results reported here focus on module 1, which includes the dose escalation of camonsertib monotherapy, and is further divided into three submodules: module 1a (M1a), 5/2 dosing schedule; module 1b (M1b), 3/4 dosing schedule; and module 1c (M1c), food effect evaluation. For the 12 patients enrolled in M1c, camonsertib was administered with a high-fat, high-calorie meal on day −3 and in the fasted state on day 1, to evaluate the effect of food on the PK of camonsertib. After the food effect portion of the study, patients continued camonsertib monotherapy on either the 5/2 or 3/4 schedule and were analyzed for safety and efficacy along with the patients in M1a and M1b. The study was conducted in accordance with the Declaration of Helsinki and Council for International Organizations of Medical Sciences International Ethical Guidelines, applicable International Conference on Harmonization Good Clinical Practice Guidelines and applicable laws and regulations. All patients provided written informed consent to adhere to the clinical protocol and provide serial blood samples and tumor tissue. The protocol was approved by the institutional review board or ethics committee at each participating institution.
# as §1
# [3] = Dose 5 mg, Tau 24 hr, cycle 1 day 1
# [4] = Dose 10 mg, Tau 24 hr, cycle 1 day 1
# [5] = Dose 20 mg, Tau 24 hr, cycle 1 day 1
# [6] = Dose 40 mg, Tau 12 hr, cycle 1 day 1
# [7] = Dose 40 mg, Tau 24 hr, cycle 1 day 1
# [8] = Dose 60 mg, Tau 12 hr, cycle 1 day 1
# [9] = Dose 80 mg, Tau 12 hr, cycle 1 day 1
# [10] = Dose 80 mg, Tau 24 hr, cycle 1 day 1
# [11] = Dose 100 mg, Tau 24 hr, cycle 1 day 1
# [12] = Dose 120 mg, Tau 24 hr, cycle 1 day 1
# [13] = Dose 160 mg, Tau 24 hr, cycle 1 day 1
# [14] = Dose 200 mg, Tau 24 hr, cycle 1 day 1
# [15] = 10 mg, Tau 24 hr, cycle 1 day 1
# [16] = 20 mg, Tau 24 hr, cycle 1 day 1
# [17] = 40 mg, Tau 12 hr, cycle 1 day 1
# [18] = 40 mg, Tau 24 hr, cycle 1 day 1
# [19] = 60 mg, Tau 12 hr, cycle 1 day 1
# [20] = 80 mg, Tau 12 hr, cycle 1 day 1
# [21] = 80 mg, Tau 24 hr, cycle 1 day 1
# [22] = 100 mg, Tau 24 hr, cycle 1 day 1
# [23] = 120 mg, Tau 24 hr, cycle 1 day 1
# [24] = 160 mg, Tau 24 hr, cycle 1 day 1
# [25] = 200 mg, Tau 24 hr, cycle 1 day 1
# [26] = high fat/high calorie meal vs fasted, 100–160 mg QD
smiles,measurement,setting,value
C[C@@H]1COCCN1c1cc([C@]2(O)C[C@H]3CC[C@@H](C2)O3)c2cnn(-c3cc[nH]n3)c2n1 [camonsertib],"AUC0-t/dose, geometric mean",[1]; [3],0.427 µg·h/mL/mg
same,"Cmax/dose, geometric mean",[1]; [3],0.098 µg/mL/mg
same,"AUC0-t/dose, geometric mean",[1]; [4],0.567 µg·h/mL/mg
same,"Cmax/dose, geometric mean",[1]; [4],0.105 µg/mL/mg
same,"AUC0-t/dose, geometric mean",[1]; [5],0.239 µg·h/mL/mg
same,"Cmax/dose, geometric mean",[1]; [5],0.04 µg/mL/mg
same,"AUC0-t/dose, geometric mean",[1]; [6],1.003 µg·h/mL/mg
same,"Cmax/dose, geometric mean",[1]; [6],0.095 µg/mL/mg
same,"AUC0-t/dose, geometric mean",[1]; [7],0.329 µg·h/mL/mg
same,"Cmax/dose, geometric mean",[1]; [7],0.029 µg/mL/mg
same,"AUC0-t/dose, geometric mean",[1]; [8],0.444 µg·h/mL/mg
same,"Cmax/dose, geometric mean",[1]; [8],0.055 µg/mL/mg
same,"AUC0-t/dose, geometric mean",[1]; [9],0.527 µg·h/mL/mg
same,"Cmax/dose, geometric mean",[1]; [9],0.038 µg/mL/mg
same,"AUC0-t/dose, geometric mean",[1]; [10],0.254 µg·h/mL/mg
same,"Cmax/dose, geometric mean",[1]; [10],0.071 µg/mL/mg
same,"AUC0-t/dose, geometric mean",[1]; [11],0.3 µg·h/mL/mg
same,"Cmax/dose, geometric mean",[1]; [11],0.052 µg/mL/mg
same,"AUC0-t/dose, geometric mean",[1]; [12],0.246 µg·h/mL/mg
same,"Cmax/dose, geometric mean",[1]; [12],0.044 µg/mL/mg
same,"AUC0-t/dose, geometric mean",[1]; [13],0.256 µg·h/mL/mg
same,"Cmax/dose, geometric mean",[1]; [13],0.046 µg/mL/mg
same,"AUC0-t/dose, geometric mean",[1]; [14],0.273 µg·h/mL/mg
same,"Cmax/dose, geometric mean",[1]; [14],0.047 µg/mL/mg
same,Accumulation,[1]; after repeated dosing,no accumulation
same,Increases in Cmax and AUC with dose,[1]; dose range 5–200 mg QD,linear
same,AUC(0-t),"[1]; 5 mg, Tau 24 hr, cycle 1 day 1, read-out: AUC0-12, geometric mean",1800 ng·h/mL
same,AUC(0-t),"[1]; 5 mg, Tau 24 hr, cycle 1 day 1, read-out: AUC0-t, geometric mean",2100 ng·h/mL
same,Cmax,"[1]; 5 mg, Tau 24 hr, cycle 1 day 1",500 ng/mL
same,Tmax,"[1]; 5 mg, Tau 24 hr, cycle 1 day 1",1.17 h
same,AUC(0-t),"[1]; 10 mg, Tau 24 hr, cycle 1 day 1, read-out: AUC0-12, geometric mean",4400 ng·h/mL
same,AUC(0-t),"[1]; 10 mg, Tau 24 hr, cycle 1 day 1, read-out: AUC0-t, geometric mean",5700 ng·h/mL
same,Cmax,[1]; [15],1100 ng/mL
same,Tmax,[1]; [15],1 h
same,AUC(0-t),"[1]; 20 mg, Tau 24 hr, cycle 1 day 1, read-out: AUC0-12, geometric mean",2800 ng·h/mL
same,AUC(0-t),"[1]; 20 mg, Tau 24 hr, cycle 1 day 1, read-out: AUC0-t, geometric mean",4800 ng·h/mL
same,Cmax,[1]; [16],800 ng/mL
same,Tmax,[1]; [16],10.7 h
same,AUC(0-t),"[1]; 40 mg, Tau 12 hr, cycle 1 day 1, read-out: AUC0-12, geometric mean",23400 ng·h/mL
same,AUC(0-t),"[1]; 40 mg, Tau 12 hr, cycle 1 day 1, read-out: AUC0-t, geometric mean",40100 ng·h/mL
same,Cmax,[1]; [17],3800 ng/mL
same,Tmax,[1]; [17],1.96 h
same,AUC(0-t),"[1]; 40 mg, Tau 24 hr, cycle 1 day 1, read-out: AUC0-12, geometric mean",4700 ng·h/mL
same,AUC(0-t),"[1]; 40 mg, Tau 24 hr, cycle 1 day 1, read-out: AUC0-t, geometric mean",13200 ng·h/mL
same,Cmax,[1]; [18],1200 ng/mL
same,Tmax,[1]; [18],22.1 h
same,AUC(0-t),"[1]; 60 mg, Tau 12 hr, cycle 1 day 1, read-out: AUC0-12, geometric mean",16900 ng·h/mL
same,AUC(0-t),"[1]; 60 mg, Tau 12 hr, cycle 1 day 1, read-out: AUC0-t, geometric mean",26600 ng·h/mL
same,Cmax,[1]; [19],3300 ng/mL
same,Tmax,[1]; [19],1.55 h
same,AUC(0-t),"[1]; 80 mg, Tau 12 hr, cycle 1 day 1, read-out: AUC0-12, geometric mean",21400 ng·h/mL
same,AUC(0-t),"[1]; 80 mg, Tau 12 hr, cycle 1 day 1, read-out: AUC0-t, geometric mean",42100 ng·h/mL
same,Cmax,[1]; [20],3000 ng/mL
same,Tmax,[1]; [20],2.17 h
same,AUC(0-t),"[1]; 80 mg, Tau 24 hr, cycle 1 day 1, read-out: AUC0-12, geometric mean",18700 ng·h/mL
same,AUC(0-t),"[1]; 80 mg, Tau 24 hr, cycle 1 day 1, read-out: AUC0-t, geometric mean",20300 ng·h/mL
same,Cmax,[1]; [21],5700 ng/mL
same,Tmax,[1]; [21],1 h
same,AUC(0-t),"[1]; 100 mg, Tau 24 hr, cycle 1 day 1, read-out: AUC0-12, geometric mean",24800 ng·h/mL
same,AUC(0-t),"[1]; 100 mg, Tau 24 hr, cycle 1 day 1, read-out: AUC0-t, geometric mean",30200 ng·h/mL
same,Cmax,[1]; [22],5200 ng/mL
same,Tmax,[1]; [22],1.54 h
same,AUC(0-t),"[1]; 120 mg, Tau 24 hr, cycle 1 day 1, read-out: AUC0-12, geometric mean",23900 ng·h/mL
same,AUC(0-t),"[1]; 120 mg, Tau 24 hr, cycle 1 day 1, read-out: AUC0-t, geometric mean",29500 ng·h/mL
same,Cmax,[1]; [23],5300 ng/mL
same,Tmax,[1]; [23],2.03 h
same,AUC(0-t),"[1]; 160 mg, Tau 24 hr, cycle 1 day 1, read-out: AUC0-12, geometric mean",34800 ng·h/mL
same,AUC(0-t),"[1]; 160 mg, Tau 24 hr, cycle 1 day 1, read-out: AUC0-t, geometric mean",41000 ng·h/mL
same,Cmax,[1]; [24],7300 ng/mL
same,Tmax,[1]; [24],1.21 h
same,AUC(0-t),"[1]; 200 mg, Tau 24 hr, cycle 1 day 1, read-out: AUC0-12, geometric mean",44700 ng·h/mL
same,AUC(0-t),"[1]; 200 mg, Tau 24 hr, cycle 1 day 1, read-out: AUC0-t, geometric mean",54600 ng·h/mL
same,Cmax,[1]; [25],9500 ng/mL
same,Tmax,[1]; [25],1 h
same,AUC(0-inf),[1]; [3],2300 ng·h/mL
same,half-life,"[1]; Dose 5 mg, Tau 24 hr, cycle 1 day 1, read-out: Half-life, geometric mean (converted)",5.87 h
same,AUC(0-inf),[1]; [4],6600 ng·h/mL
same,half-life,"[1]; Dose 10 mg, Tau 24 hr, cycle 1 day 1, read-out: Half-life, geometric mean (converted)",8.5 h
same,AUC(0-inf),[1]; [5],3100 ng·h/mL
same,half-life,"[1]; Dose 20 mg, Tau 24 hr, cycle 1 day 1, read-out: Half-life, geometric mean (converted)",4.18 h
same,AUC(0-inf),[1]; [6],153000 ng·h/mL
same,AUC(0-inf),[1]; [8],66100 ng·h/mL
same,AUC(0-inf),[1]; [10],21000 ng·h/mL
same,half-life,"[1]; Dose 80 mg, Tau 24 hr, cycle 1 day 1, read-out: Half-life, geometric mean (converted)",4.08 h
same,AUC(0-inf),[1]; [11],32300 ng·h/mL
same,half-life,"[1]; Dose 100 mg, Tau 24 hr, cycle 1 day 1, read-out: Half-life, geometric mean (converted)",5.67 h
same,AUC(0-inf),[1]; [12],31300 ng·h/mL
same,half-life,"[1]; Dose 120 mg, Tau 24 hr, cycle 1 day 1, read-out: Half-life, geometric mean (converted)",6.21 h
same,AUC(0-inf),[1]; [13],45900 ng·h/mL
same,half-life,"[1]; Dose 160 mg, Tau 24 hr, cycle 1 day 1, read-out: Half-life, geometric mean (converted)",5.97 h
same,AUC(0-inf),[1]; [14],58900 ng·h/mL
same,half-life,"[1]; Dose 200 mg, Tau 24 hr, cycle 1 day 1, read-out: Half-life, geometric mean (converted)",6.31 h
same,half-life,"[1]; across all QD dose levels, read-out: Median half-life (converted)",5.8 h
same,Doses at which plasma exposures achieved predicted efficacious exposures,[1]; in vivo,> 100 mg QD
same,PK variability,[1]; intra-patient and inter-patient,low intra-patient and inter-patient variability
same,"Change in p-KAP1, on-treatment vs pre-treatment biopsy",p-KAP1 Ser821,statistically significant increases
same,"Change in γ-H2AX, on-treatment vs pre-treatment biopsy",γ-H2AX,statistically significant increases
same,Food effect on AUC,[2]; [26],no change in AUC
same,Food effect on Cmax,[2]; [26],reduction
same,Food effect on Tmax,[2]; [26],delay in Tmax
same,"Effect of a high-fat, high-calorie meal on PK","[2]; twelve patients, module 1c",modest PK changes
